Measurements: US20210053957A1, “HERBICIDAL COMPOUNDS” (SYNGENTA PARTICIPATIONS AG, priority 2018, published 2021)

Key:
Assay in all cases: Post-emergence efficacy, glasshouse spray test
Type in all cases: in vivo
[1] = tested on: Euphorbia heterophylla (EPHHL); settings: Euphorbia heterophylla, post-emergence, 312 h; Application Rate 500 g/Ha; evaluated after 13 days; read-out: Control of weed species after post-emergence application, EPHHL (100=total damage to plant; 0=no damage to plant)
In short: (§1)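 Post-emergence glasshouse test on 14-day-old potted plants. Rating 0–100 plant damage at 13 days after application.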

[2] = tested on: Ipomoea hederacea (IPOHE); settings: Ipomoea hederacea, post-emergence, 312 h; Application Rate 500 g/Ha; evaluated after 13 days; read-out: Control of weed species after post-emergence application, IPOHE (100=total damage to plant; 0=no damage to plant)
In short: as §1

[3] = tested on: Digitaria sanguinalis (DIGSA); settings: Digitaria sanguinalis, post-emergence, 312 h; Application Rate 500 g/Ha; evaluated after 13 days; read-out: Control of weed species after post-emergence application, DIGSA (100=total damage to plant; 0=no damage to plant)
In short: as §1

[4] = tested on: Amaranthus palmeri (AMAPA); settings: Amaranthus palmeri, post-emergence, 312 h; Application Rate 500 g/Ha; evaluated after 13 days; read-out: Control of weed species after post-emergence application, AMAPA (100=total damage to plant; 0=no damage to plant)
In short: as §1

Setaia fabei (SETFA) = settings: Setaria faberi, post-emergence, 312 h; Application Rate 500 g/Ha; evaluated after 13 days; read-out: Control of weed species after post-emergence application, SETFA (100=total damage to plant; 0=no damage to plant)
In short: as §1

Lolium perenne (LOLPE) = settings: Lolium perenne, post-emergence, 312 h; Application Rate 500 g/Ha; evaluated after 13 days; read-out: Control of weed species after post-emergence application, LOLPE (100=total damage to plant; 0=no damage to plant)
In short: as §1

Eleusine indica (ELEIN) = settings: Eleusine indica, post-emergence, 312 h; Application Rate 500 g/Ha; evaluated after 13 days; read-out: Control of weed species after post-emergence application, ELEIN (100=total damage to plant; 0=no damage to plant)
In short: as §1

[5] = tested on: Echinochloa crus-galli (ECHCG); settings: Echinochloa crus-galli, post-emergence, 312 h; Application Rate 500 g/Ha; evaluated after 13 days; read-out: Control of weed species after post-emergence application, ECHCG (100=total damage to plant; 0=no damage to plant)
In short: as §1

[6] = tested on: Chenopodium album (CHEAL); settings: Chenopodium album, post-emergence, 312 h; Application Rate 500 g/Ha; evaluated after 13 days; read-out: Control of weed species after post-emergence application, CHEAL (100=total damage to plant; 0=no damage to plant)
In short: as §1

| Structure (SMILES) | pest or weed control at 500 g/ha [1] [%] | pest or weed control at 500 g/ha [2] [%] | pest or weed control at 500 g/ha [3] [%] | pest or weed control at 500 g/ha [4] [%] | pest or weed control at 500 g/ha (Setaia fabei (SETFA)) [%] | pest or weed control at 500 g/ha (Lolium perenne (LOLPE)) [%] | pest or weed control at 500 g/ha (Eleusine indica (ELEIN)) [%] | pest or weed control at 500 g/ha [5] [%] | pest or weed control at 500 g/ha [6] [%] |
| --- | --- | --- | --- | --- | --- | --- | --- | --- | --- |
| COC(=O)CCC[n+]1ccc(-c2nc(C)co2)cn1 [Compound A128] | 70 | 20 | 90 | 90 | 90 | 60 | 100 | 80 | 20 |
| Cn1cnc(-c2cc[n+](CCCS(=O)(=O)[O-])nc2)n1 [Compound A117] | 70 | 30 | 80 | 40 | 90 | 40 | 20 | 70 | 20 |
| O=C(O)CC[n+]1ccc(-c2ccoc2)cn1 [Compound A43] | 80 | 20 | 20 | 100 | 10 | 0 | 10 | 10 | 90 |
| O=C(O)CC[n+]1ccc(-c2ncco2)cn1 [Compound A32] | 80 | 60 | 90 | 80 | 80 | 40 | 90 | 90 | 90 |
| COc1cc(-c2cc[n+](CCS(=O)(=O)[O-])nc2)sn1 [Compound A34] | 30 | 20 | 30 | 60 | 40 | 20 | 20 | 50 | 20 |
| O=C(O)CC[n+]1ccc(-c2nccs2)cn1 [Compound A111] | 90 | 70 | 100 | 90 | 100 | 90 | 100 | 100 | 90 |
| CNC(=O)c1oc(-c2cc[n+](CCC(=O)OC)nc2)nc1C [Compound A137] | 20 | 10 | 50 | 20 | 30 | 10 | 30 | 40 | 10 |
| Cc1coc(-c2cc[n+](CCCC(=O)O)nc2)n1 [Compound A135] | 90 | 10 | 90 | 90 | 90 | 40 | 80 | 90 | 20 |
| Cn1cnc(-c2cc[n+](CCCC(=O)O)nc2)n1 [Compound A119] | 80 | 30 | 90 | 100 | 100 | 30 | 90 | 80 | 50 |
| CNc1nnc(-c2cc[n+](CCS(=O)(=O)[O-])nc2)s1 [Compound A45] | 90 | 20 | 50 | 100 | 70 | 70 | 70 | 40 | 80 |
| O=C(O)CC[n+]1ccc(-c2nnc[nH]2)cn1 [Compound A37] | 30 | 20 | 10 | 30 | 10 | 0 | 10 | 10 | 50 |
| O=S(=O)([O-])CC[n+]1ccc(-c2cnsc2)cn1 [Compound A60] | 50 | 10 | 50 | 90 | 50 | 30 | 70 | 40 | 90 |
| COC(=O)C[n+]1ccc(-c2nc(C)co2)cn1 [Compound A133] | 0 | 10 | 20 | 0 | 0 | 0 | 10 | 10 | 0 |
| Cc1csc(-c2cc[n+](CCS(=O)(=O)[O-])nc2)n1 [Compound A13] | 90 | 40 | 30 | 90 | 60 | 60 | 80 | 40 | 70 |
| CCOC(=O)c1coc(-c2cc[n+](CCC(=O)O)nc2)n1 [Compound A126] | 70 | 30 | 90 | 90 | 70 | 60 | 90 | 60 | 70 |
| CC(C)(CC(=O)O)[n+]1ccc(-c2ncco2)cn1 [Compound A107] | 30 | 20 | 70 | 100 | 50 | 20 | 30 | 40 | 50 |
| O=C(O)CC[n+]1ccc(-c2ccsc2)cn1 [Compound A63] | 40 | 20 | 20 | 0 | 30 | 10 | 20 | 20 | 30 |
| Cc1nnc(-c2cc[n+](CCC(=O)O)nc2)s1 [Compound A98] | 90 | 40 | 90 | 100 | 100 | 80 | 80 | 70 | 90 |
